Measured values from patent US20060128643A1, “Compositions containing a combination of a creatine compound and a second agent” (The General Hospital Corporation, priority 1998, published 2006).

Key:
[1] = intravenous injection, up to 8 grams/day, patients with cardiac diseases; cited from earlier work
[2] = tested on: MPTP neurotoxicity (dopamine depletion); details: animal model of Parkinson's disease; cited from earlier work
[3] = tested on: malonate induced striatal lesions; test: Malonate model of Huntington's disease: striatal lesion volume (Example 1); assay type: in vivo, rats
Protocol: Oral administration of creatine and its analogue cyclocreatine were examined to determine their ability to attenuate malonate lesions. Creatine was administered orally to rats in their feed at doses of 0.25-3.0% of the diet. Cyclocreatine was administered at 0.2-1.0%. Controls received unsupplemented otherwise identical diets. The compounds were administered for two weeks prior to the administration of malonate and then for a further week prior to sacrifice. Malonate was dissolved in distilled deionized water and the pH wad adjusted to 7.4 with 0.1 m HCl. Intrastriatal injections of 1.5 ul of malonate containing 3 μmol were made into the striatum at the level of the bregma 2.4 mm lateral to the midline and 4.5 mm ventral to the dura. Animals were sacrificed at 7 days by decapitation, and the brains were quickly removed and placed in ice cold 0.9% saline solution. Brains were sectioned at 2 mm intervals. Slices were then placed posterior side down in 2% 2,3,5-triphenyltetrazolium chloride. Slices were stained in the dark at room temperature for 30 minutes and then removed and placed in 4% paraformaldehyde, pH 7.3. Lesions, noted by pale staining, were evaluated on the posterior surface of each section using a Bioquant 4 system by an experienced histologist blinded to experimental conditions. These measurements have been validated by comparing them to measurements obtained on adjacent Nissl stain sections.

[4] = tested on: MPTP induced dopaminergic toxicity; test: MPTP model for Parkinson's disease: striatal dopamine, DOPAC, HVA; assay type: in vivo, male Swiss Webster mice
Protocol: The effect of two representative creatine compounds, creatine and cyclocreatine, were evaluated using this model. Creatine and cyclocreatine were administered in the initial pilot experiment as 1% formulation in the feed of animals, and was administered for three weeks before MPTP treatment. MPTP was administered intraperitoneally at a dose of 15 mg/kg every 2 hours for five injections. The animals then remained on either creatine or cyclocreatine supplemented diets for 1 week before sacrifice. The mice examined were male Swiss Webster mice weighing 30-35 grams obtained from Taconic Farms. Control groups received either normal saline or MPTP hydrochloride alone. MPTP was administered in 0.1 ml of water. The MPTP was obtained from Research Biochemicals. Eight to twelve animals were examined in each group. Following sacrifice the two striata were rapidly dissected and placed in chilled 0.1 M perchloric acid. Tissue was subsequently sonicated, and aliquots were taken for protein quantification using a fluorometer assay. Dopamine, 3,4-dihydroxyphenylacetic acid (DOPAC), and homovanillic acid (HVA) were quantified by HPLC with 16 electrode electrochemical detection. Concentrations of dopamine and metabolites were expressed as nmol/mg protein. The statistical significance of differences was determined by one-way ANOVA followed by Fisher PLSDpost-hoc test to compare group means.
A dose response study was conducted where the creatine dose was 0.25%-3.0% of the diet and cyclocreatine 0.25-1.0% of the diet.

[5] = up to 1% of diet for 2 weeks or for over 4 weeks; cited from earlier work
[6] = feeding animals, e.g. 1% dietary; cited from earlier work
[7] = rats receiving dietary 1% cyclocreatine; cited from earlier work
[8] = cited from earlier work
[9] = tested on: malonate striatal lesions; details: cited from earlier work; for protection against lesions in the malonate animal model: in vivo
MPTP toxicity = details: mice; cited from earlier work
[10] = cited from earlier work; remark: listed apart in the source
[11] = tested on: malonate lesions (striatal); test: Malonate striatal lesions, creatine and nicotinamide (Example 4); assay type: in vivo, male Sprague-Dawley rats; details: creatine 1% in the diet, nicotinamide 0.5% in the drinking water; malonate 3 μmol intrastriatal
Protocol: Studies of the neuroprotective effects of creatine and nicotinamide were carried out in 250 to 300 g male Sprague-Dawley rats. Creatine was administered orally to rats in their feed at a dose of 1% in the diet. Nicotinamide was administered orally with apple juice at a dose of 0.5% in the drinking water. Rats were treated for one week prior to intracerebral injectior˜s. Animals then remained on the control or supplemented diets for one week prior to being sacrificed. Eleven to 12 animals were examined in each experimental group. NMDA was administered at a doge of 240 nmol in 1 μl. AMPA was administered at a dose of 30 nmol in 1 μl and kainic acid was administered at dose of 5 nmol in 1 μl. Malonate was dissolved in distilled deionized water and the pH was adjusted to 7.4 with HCl. Intrastriatal injections of 3 μmol of malonate in 1.5 μl were made with a 10 μl Hamiiton syringe fitted with a 26 gauge blunt tip needle, into the left striatum at the level of the bregma, 2.4 mm lateral to the midline and 4.5 mm ventral to the dura as described previously [Matthews, R. T et al. J. Neurosci., 18 (1998) 156-163]. […] Lesions noted by pale staining were evaluated on the posterior surface of each section using a Bioquant 4 system, which calculates the volume of the lesions in each section, by an experienced histologist blinded to experimental conditions. […]

creatine kinase = creatine kinase (Oryctolagus cuniculus, UniProt P00563); details: cited from earlier work
creatine kinase, sequence (P00563 whole entry): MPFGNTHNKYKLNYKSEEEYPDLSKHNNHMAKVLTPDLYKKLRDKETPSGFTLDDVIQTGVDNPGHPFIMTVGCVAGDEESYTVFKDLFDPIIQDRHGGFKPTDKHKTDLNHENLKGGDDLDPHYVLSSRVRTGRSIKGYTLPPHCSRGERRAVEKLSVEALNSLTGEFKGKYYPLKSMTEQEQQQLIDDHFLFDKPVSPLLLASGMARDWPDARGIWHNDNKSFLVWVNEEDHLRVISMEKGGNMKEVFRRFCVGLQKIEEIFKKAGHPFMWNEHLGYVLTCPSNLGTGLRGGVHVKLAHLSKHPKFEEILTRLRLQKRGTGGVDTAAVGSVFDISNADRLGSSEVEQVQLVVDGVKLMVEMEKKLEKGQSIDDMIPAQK

[12] = dose response study, 0.5% of the diet

Compound: N-phosphoryl creatine [creatine phosphate]
- adverse side effects [1]: no adverse side effects

Compound: CC(C)(C)[N+]([O-])=Cc1ccccc1S(=O)(=O)O [N-tert-a-(2-sulfophenyl) nitrone, reference compound]
- protection against dopamine depletion [2]: effective in inhibiting moderate dopamine depletion

Compound: NC1=NCCN1CC(=O)O [cyclocreatine, 1-carboxymethyl-2-iminoimidazolidine]
- neuroprotection against malonate induced striatal lesions ([3]; 1% in the diet): significant
- neuroprotection against malonate induced striatal lesions, dose response ([3]; increasing doses in the diet (creatine 0.25-3%; cyclocreatine 0.2-1.0%)): dose dependent neuroprotective effects
- protection against striatal malonate lesions ([3]; oral supplementation in feed, 2 weeks before and 1 week after intrastriatal malonate 3 μmol): protected against striatal malonate lesions
- effect against MPTP induced depletions of homovanillic acid ([4]; 1% in feed, pilot experiment): effective
- neuroprotection against MPTP induced dopamine depletions ([4]; 1% in feed, pilot experiment): significant neuroprotection
- neuroprotective effect compared with creatine ([4]; 1% in feed, pilot experiment): greater than that seen with creatine alone
- protection against DOPAC depletions induced by MPTP ([4]; 1% in feed, pilot experiment, MPTP 15 mg/kg i.p. x5): significantly protected
- effects on the dopamine metabolites HVA and DOPAC ([4]; dose response study (creatine 0.25%-3.0%; cyclocreatine 0.25-1.0% of the diet)): neuroprotection effects
- neuroprotection against MPTP induced dopamine depletions [4, 12]: significant protection
- protection against HVA depletion [4, 12]: not seen
- neuroprotection against MPTP induced dopamine depletions ([4]; dose response study, 1.0% of the diet): significant protection
- gross adverse effects [5]: without gross adverse effects
- accumulation in organs [6]: accumulation of cyclocreatine in different organs in mM concentrations
- tissue uptake [7]: taken up by muscle, heart and brain
- mortality ([8]; diet containing 1% cyclocreatine, in the presence of antibiotics): without significant mortality
- growth versus control chicks ([8]; in vivo): grew more slowly

Compound: COC1=C(OC)C(=O)C(C/C=C(\C)CC/C=C(\C)CC/C=C(\C)CC/C=C(\C)CC/C=C(\C)CC/C=C(\C)CC/C=C(\C)CC/C=C(\C)CC/C=C(\C)CCC=C(C)C)=C(C)C1=O [CoQ10, 2,3 dimethoxy-5 methyl-6-decaprenyl benzoquinone]
- ATP depletion produced by malonate in vivo [9]: attenuated ATP depletion
- protection against lesions in the malonate animal model [9]: dose dependent protection
- protection against MPTP toxicity (MPTP toxicity): significantly protect
- solubility in chloroform and carbon tetrachloride [10]: very soluble
- solubility in water [10]: insoluble in water

Compound: NC(=O)c1cccnc1 [nicotinamide]
- neuroprotective effect against malonate lesions (striatal lesion volume) [11]: did not reach significance
- ATP depletion produced by malonate in vivo [9]: attenuated ATP depletion
- protection against lesions in the malonate animal model [9]: dose dependent protection
- protection against dopamine depletion [2]: effective in inhibiting moderate dopamine depletion

Compound: isoepoxycreatine
- inactivation of creatine kinase (creatine kinase): completely and irreversibly inactivate

Compound: N=C(N)N(CC(=O)O)CC1CO1 (centres unmarked) [epoxycreatine]
- inactivation of creatine kinase (creatine kinase): completely and irreversibly inactivate
